The NIST ThermoML archive (doi:10.1021/je300799f)
± gives the expanded uncertainty stated by the source.

Assay: xn = mol fraction of the nth substance listed
Settings: 101 kPa, Liquid, Vibrating tube method

CCCC(=O)OC [methyl butanoate] + CCCCCCC
Settings | mass density [kg/m3]
288.15 K, x1 = 0.0478 | 695.54 ± 0.27
288.15 K, x1 = 0.094 | 702.79 ± 0.27
288.15 K, x1 = 0.1411 | 710.56 ± 0.27
288.15 K, x1 = 0.2025 | 720.91 ± 0.27
288.15 K, x1 = 0.2476 | 728.91 ± 0.27
288.15 K, x1 = 0.2996 | 738.37 ± 0.27
288.15 K, x1 = 0.3531 | 748.53 ± 0.27
288.15 K, x1 = 0.4112 | 759.9 ± 0.27
288.15 K, x1 = 0.4484 | 767.46 ± 0.27
288.15 K, x1 = 0.5023 | 778.63 ± 0.27
288.15 K, x1 = 0.5526 | 789.52 ± 0.27
288.15 K, x1 = 0.5984 | 799.7 ± 0.27
288.15 K, x1 = 0.6471 | 810.83 ± 0.28
288.15 K, x1 = 0.7077 | 825.2 ± 0.28
288.15 K, x1 = 0.7463 | 834.68 ± 0.28
288.15 K, x1 = 0.798 | 847.73 ± 0.28
288.15 K, x1 = 0.8912 | 872.29 ± 0.29
288.15 K, x1 = 0.9493 | 888.46 ± 0.29
288.15 K, x1 = 1 | 903.31 ± 0.23
298.15 K, x1 = 0.0485 | 686.88 ± 0.27
298.15 K, x1 = 0.0876 | 693 ± 0.27
298.15 K, x1 = 0.1389 | 701.34 ± 0.27
298.15 K, x1 = 0.2122 | 713.65 ± 0.27
298.15 K, x1 = 0.2586 | 721.76 ± 0.27
298.15 K, x1 = 0.302 | 729.67 ± 0.27
298.15 K, x1 = 0.3571 | 739.98 ± 0.27
298.15 K, x1 = 0.4019 | 748.57 ± 0.27
298.15 K, x1 = 0.4492 | 758.07 ± 0.27
298.15 K, x1 = 0.5017 | 768.87 ± 0.27
298.15 K, x1 = 0.5573 | 780.67 ± 0.27
298.15 K, x1 = 0.5952 | 789.01 ± 0.28
298.15 K, x1 = 0.6466 | 800.69 ± 0.28
298.15 K, x1 = 0.7063 | 814.61 ± 0.28
298.15 K, x1 = 0.7424 | 823.41 ± 0.28
298.15 K, x1 = 0.7993 | 837.66 ± 0.28
298.15 K, x1 = 0.8623 | 853.85 ± 0.28
298.15 K, x1 = 0.9015 | 864.37 ± 0.29
298.15 K, x1 = 0.9507 | 878.23 ± 0.29
298.15 K, x1 = 1 | 892.31 ± 0.23
308.15 K, x1 = 0.063 | 680.36 ± 0.27
308.15 K, x1 = 0.117 | 688.78 ± 0.27
308.15 K, x1 = 0.187 | 700.22 ± 0.27
308.15 K, x1 = 0.3025 | 720.34 ± 0.27
308.15 K, x1 = 0.417 | 741.86 ± 0.27
308.15 K, x1 = 0.5047 | 759.48 ± 0.27
308.15 K, x1 = 0.5651 | 772.28 ± 0.27
308.15 K, x1 = 0.5933 | 778.47 ± 0.28
308.15 K, x1 = 0.6532 | 791.9 ± 0.28
308.15 K, x1 = 0.7045 | 803.77 ± 0.28
308.15 K, x1 = 0.7487 | 814.31 ± 0.28
308.15 K, x1 = 0.7648 | 818.37 ± 0.28
308.15 K, x1 = 0.789 | 824.36 ± 0.28
308.15 K, x1 = 0.8514 | 840.37 ± 0.28
308.15 K, x1 = 0.8818 | 848.32 ± 0.29
308.15 K, x1 = 0.9257 | 860.13 ± 0.29
308.15 K, x1 = 0.9603 | 869.83 ± 0.29
308.15 K, x1 = 1 | 881.19 ± 0.24
318.15 K, x1 = 0.0768 | 673.72 ± 0.27
318.15 K, x1 = 0.089 | 675.62 ± 0.27
318.15 K, x1 = 0.1535 | 685.7 ± 0.27
318.15 K, x1 = 0.2117 | 695.29 ± 0.27
318.15 K, x1 = 0.2567 | 702.97 ± 0.27
318.15 K, x1 = 0.305 | 711.44 ± 0.27
318.15 K, x1 = 0.3544 | 720.36 ± 0.27
318.15 K, x1 = 0.4042 | 729.76 ± 0.27
318.15 K, x1 = 0.4351 | 735.72 ± 0.27
318.15 K, x1 = 0.5011 | 748.89 ± 0.27
318.15 K, x1 = 0.5487 | 758.83 ± 0.27
318.15 K, x1 = 0.5962 | 768.97 ± 0.28
318.15 K, x1 = 0.6971 | 791.66 ± 0.28
318.15 K, x1 = 0.7469 | 803.4 ± 0.28
318.15 K, x1 = 0.7973 | 815.75 ± 0.28
318.15 K, x1 = 0.8454 | 827.9 ± 0.28
318.15 K, x1 = 0.8948 | 840.81 ± 0.29
318.15 K, x1 = 0.9513 | 856.25 ± 0.29
318.15 K, x1 = 1 | 870.06 ± 0.24
328.15 K, x1 = 0.044 | 659.99 ± 0.27
328.15 K, x1 = 0.0921 | 667.12 ± 0.27
328.15 K, x1 = 0.1388 | 674.29 ± 0.27
328.15 K, x1 = 0.189 | 682.37 ± 0.27
328.15 K, x1 = 0.2611 | 694.33 ± 0.27
328.15 K, x1 = 0.3006 | 701.19 ± 0.27
328.15 K, x1 = 0.4098 | 721.06 ± 0.27
328.15 K, x1 = 0.4532 | 729.42 ± 0.27
328.15 K, x1 = 0.5031 | 739.32 ± 0.27
328.15 K, x1 = 0.5522 | 749.41 ± 0.27
328.15 K, x1 = 0.5979 | 759.1 ± 0.27
328.15 K, x1 = 0.6473 | 769.85 ± 0.28
328.15 K, x1 = 0.706 | 783.28 ± 0.28
328.15 K, x1 = 0.7456 | 792.62 ± 0.28
328.15 K, x1 = 0.7926 | 803.93 ± 0.28
328.15 K, x1 = 0.86 | 820.85 ± 0.28
328.15 K, x1 = 0.9028 | 832.08 ± 0.29
328.15 K, x1 = 0.9508 | 845.05 ± 0.29
328.15 K, x1 = 1 | 858.8 ± 0.24
